Laboratory results from US20080125432A1 (Devgen NV, priority 2004, published 2008).

SMILES	melting point
COc1ccccc1Nc1nc(C)c(C(=O)NCc2ccccc2Br)s1 [Compound 146, 2-(2-methoxy-phenylamino)-4-methyl-thiazole-5-carboxylic acid 2-bromo-benzylamide]	159.6 to 164 °C
COc1ccccc1Nc1nc(C)c(C(=O)NCc2cccc(C)c2)s1 [Compound 141, 2-(2-methoxy-phenylamino)-4-methyl-thiazole-5-carboxylic acid 3-methyl-benzylamide]	148.1 to 149.9 °C
COc1ccccc1Nc1ncc(C(=O)NCc2ccc(F)c(C(F)(F)F)c2)[nH]1 [Compound 226, 2-(2-methoxy-phenylamino)-3H-imidazole-4-carboxylic acid 4-fluoro-3-trifluoromethyl-benzylamide]	227.9 to 230 °C
COc1ccccc1Nc1nc(C)c(C(=O)Cc2ccccc2)s1 [Compound 79, 1-[2-(2-methoxy-phenylamino)-4-methyl-thiazol-5-yl]-2-phenyl-ethanone]	131.7 to 140.6 °C
COc1ccccc1Nc1nc(C)c(C(=O)NCc2ccc3c(c2)OCO3)s1 [Compound 162, 2-(2-methoxy-phenylamino)-4-methyl-thiazole-5-carboxylic acid (benzo[1,3]dioxol-5-ylmethyl)-amide]	166 to 167.4 °C
COc1ccccc1Nc1nc(C)c(C(=O)NCc2ccccc2C)s1 [Compound 140, 2-(2-methoxy-phenylamino)-4-methyl-thiazole-5-carboxylic acid 2-methyl-benzylamide]	118.3 to 121.7 °C
Cc1nc(Nc2ccncc2)sc1C(=O)N[C@H]1CCC[C@@H]1OCc1ccccc1 [Compound 153, 4-methyl-2-(pyridin-4-ylamino)-thiazole-5-carboxylic acid ((1S,2S)-2-benzyloxycyclopent-1-yl) amide]	78.1 to 81.7 °C
Cc1nc(Nc2ccc(N3CCOCC3)cc2)sc1C(=O)N[C@H]1CCC[C@@H]1OCc1ccccc1 [Compound 92, 4-methyl-2-(4-morpholin-4-yl-phenylamino)-thiazole-5-carboxylic acid ((1S,2S)-2-benzyloxycyclopent-1-yl) amide]	192.5 to 194.9 °C
COc1ccccc1Nc1nc(C)c(C(=O)NCc2cccc(OC(F)(F)F)c2)s1 [Compound 158, 2-(2-methoxy-phenylamino)-4-methyl-thiazole-5-carboxylic acid 3-trifluoromethoxy-benzylamide]	96.1 to 100.3 °C
COc1ccccc1Nc1nc(C)c(C(=O)NCc2ccc(C(=O)N(C)C)cc2)s1 [Compound 137, 2-(2-methoxy-phenylamino)-4-methyl-thiazole-5-carboxylic acid 4-dimethylcarbamoyl-benzylamide]	219.1 to 226.7 °C
COc1ccccc1Nc1nc(C)c(C(=O)NCc2cccc(-c3ccccc3)c2)s1 [Compound 144, 2-(2-methoxy-phenylamino)-4-methyl-thiazole-5-carboxylic acid (biphenyl-3-ylmethyl)-amide]	126.6 to 128.3 °C
COc1ccccc1Nc1nc(C)c(C(=O)NCc2c(C)cc(Cl)cc2Cl)s1 [Compound 220, 2-(2-methoxy-phenylamino)-4-methyl-thiazole-5-carboxylic acid 2,4-dichloro-6-methyl-benzylamide]	142 to 147.7 °C
COc1ccccc1Nc1nc(C)c(C(=O)N2CCCC2c2ccccc2)s1 (centres unmarked) [Compound 176, [2-(2-methoxy-phenylamino)-4-methyl-thiazol-5-yl]-(2-phenyl-pyrrolidin-1-yl)-methanone]	113.5 to 117.6 °C
COc1ccc(CNC(=O)c2sc(Nc3ccccc3OC)nc2C)cc1 [Compound 218, 2-(2-methoxy-phenylamino)-4-methyl-thiazole-5-carboxylic acid 4-methoxybenzylamide]	143.9 to 144.8 °C
COc1ccccc1N(C)c1nc(C)c(C(=O)N[C@H](CO)c2ccccc2)s1 [Compound 150, 2-[(2-methoxy-phenyl)-methyl-amino]-4-methyl-thiazole-5-carboxylic acid ((S)-2-hydroxy-1-phenyl-ethyl)-amide]	119.4 °C
COc1ccccc1Nc1nc(C)c(C(=O)NCc2ccccc2)o1 [Compound 221, 2-(2-methoxy-phenylamino)-4-methyl-oxazole-5-carboxylic acid benzylamide]	125.9 to 130.2 °C
COc1ccccc1Nc1nc(C)c(C(=O)N(Cc2ccccc2)c2ccccc2)s1 [Compound 216, 2-(2-methoxy-phenylamino)-4-methyl-thiazole-5-carboxylic acid benzyl-phenyl-amide]	167.2 to 170 °C
Cc1nc(NC(=O)c2ccccc2)sc1C(=O)N[C@H]1CCC[C@@H]1OCc1ccccc1 [Compound 179, 2-benzoylamino-4-methyl-thiazole-5-carboxylic acid ((1S,2S)-2-benzyloxycyclopent-1-yl) amide]	97.4 to 110.6 °C
Cc1nc(Nc2ccc(Cl)cc2)sc1C(=O)NNc1ccc([N+](=O)[O-])cc1[N+](=O)[O-]	138 to 164.7 °C

SMILES	melting point
COc1ccccc1Nc1nc(C)c(C(=O)NCc2ccc(-c3ccccc3)cc2)s1 [Compound 145, 2-(2-methoxy-phenylamino)-4-methyl-thiazole-5-carboxylic acid (biphenyl-4-ylmethyl)-amide]	189.6 to 191.2 °C
COc1ccc(CNC(=O)c2oc(Nc3ccccc3OC)nc2C)c(OC)c1 [Compound 222, 2-(2-methoxy-phenylamino)-4-methyl-oxazole-5-carboxylic acid 2,4-dimethoxy-benzylamide]	68.7 to 82.4 °C
COc1ccccc1Nc1nc(C)c(C(=O)N2CCC(Cc3ccccc3)CC2)s1 [Compound 174, (4-benzyl-piperidin-1-yl)-[2-(2-methoxy-phenylamino)-4-methyl-thiazol-5-yl]-methanone]	166.8 to 169.2 °C
CC[C@H](NC(=O)c1sc(Nc2ccccc2OC)nc1C)c1ccccc1 [Compound 132, 2-(2-methoxy-phenylamino)-4-methyl-thiazole-5-carboxylic acid ((S)-1-phenyl-propyl)-amide]	66.5 to 70.4 °C
COC(=O)[C@@H](NC(=O)c1sc(Nc2ccccc2OC)nc1C)c1ccccc1 [Compound 152, (S)-{[2-(2-methoxy-phenylamino)-4-methyl-thiazole-5-carbonyl]-amino}-phenyl-aceticacid methyl ester]	133.5 to 135.7 °C
COc1ccccc1Nc1nc(C)c(C(=O)N2CC=C(c3ccc(F)cc3)CC2)s1 [Compound 163, [4-(4-fluoro-phenyl)-3,6-dihydro-2H-pyridin-1-yl]-[2-(2-methoxy-phenylamino)-4-methyl-thiazol-5-yl]-methanone]	144.4 to 149.2 °C
COC(=O)[C@H](NC(=O)c1sc(Nc2ccccc2OC)nc1C)c1ccccc1 [Compound 151, (R)-{[2-(2-methoxy-phenylamino)-4-methyl-thiazole-5-carbonyl]-amino}-phenyl-aceticacid methyl ester]	131.4 to 137.9 °C
COc1ccccc1Nc1nc(C)c(C(=O)N2CCC(C(=O)c3ccc(F)cc3)CC2)s1 [Compound 175, [4-(4-fluoro-benzoyl)-piperidin-1-yl]-[2-(2-methoxy-phenylamino)-4-methyl-thiazol-5-yl]-methanone]	92.6 to 99.6 °C
COc1ccccc1Nc1nc(C)c(C(=O)NCC2COc3ccccc3O2)s1 (centres unmarked) [Compound 217, 2-(2-methoxy-phenylamino)-4-methyl-thiazole-5-carboxylic acid (2,3-dihydro-benzo[1,4]dioxin-2-ylmethyl) amide]	138.3 to 158.2 °C
COc1ccccc1Nc1nc(C)c(C(=O)NCc2ccc(OC(F)(F)F)cc2)s1 [Compound 159, 2-(2-methoxy-phenylamino)-4-methyl-thiazole-5-carboxylic acid 4-trifluoromethoxy-benzylamide]	135.2 to 138.9 °C
COc1ccccc1Nc1nc(C)c(C(=O)NCc2ccccc2-c2ccccc2)s1 [Compound 143, 2-(2-methoxy-phenylamino)-4-methyl-thiazole-5-carboxylic acid (biphenyl-2-ylmethyl)-amide]	128.4 to 132 °C
COc1ccccc1Nc1nc(C)c(C(=O)N[C@@H](C(=O)O)c2ccccc2)s1 [Compound 212, (R)-{[2-(2-methoxy-phenylamino)-4-methyl-thiazole-5-carbonyl]-amino}-phenyl-aceticacid]	258.6 to 262.9 °C
COC[C@@H](NC(=O)c1sc(Nc2ccccc2OC)nc1C)c1ccccc1 [Compound 149, 2-(2-methoxy-phenylamino)-4-methyl-thiazole-5-carboxylic acid ((S)-2-methoxy-1-phenyl-ethyl)-amide]	118.8 to 129.6 °C
COc1ccccc1Nc1nc(C)c(C(=O)NCc2cccc(Br)c2)s1 [Compound 147, 2-(2-methoxy-phenylamino)-4-methyl-thiazole-5-carboxylic acid 3-bromo-benzylamide]	161.3 to 164.1 °C
Cc1nc(NC(=O)c2ccc(C(N)=O)cc2)sc1C(=O)N[C@H]1CCC[C@@H]1OCc1ccccc1 [Compound 213, N-[5-((1S,2S)-2-benzyloxy-cyclopentylcarbamoyl)-4-methyl-thiazol-2-yl]-terephthalamide]	213.8 to 218.9 °C
COc1ccccc1Nc1nc(C)c(C(=O)NC(C)c2ccccc2)s1 (centres unmarked) [Compound 130, 2-(2-methoxy-phenylamino)-4-methyl-thiazole-5-carboxylic acid (1-phenyl-ethyl)-amide]	60.3 to 62.4 °C
COc1ccccc1Nc1nc(C)c(C(=O)NCc2ccccc2OC(F)(F)F)s1 [Compound 157, 2-(2-methoxy-phenylamino)-4-methyl-thiazole-5-carboxylic acid 2-trifluoromethoxy-benzylamide]	76.1 to 80.2 °C
Cc1nc(NC(=O)c2ccc(C#N)cc2)sc1C(=O)N[C@H]1CCC[C@@H]1OCc1ccccc1 [Compound 181, 2-(4-cyano-benzoylamino)-4-methyl-thiazole-5-carboxylic acid ((1S,2S)-2-benzyloxycyclopent-1-yl) amide]	177.2 to 181.4 °C
COc1ccccc1Nc1nc(C)c(C(=O)Nc2ccc(Cn3cccn3)cc2)s1 [Compound 166, 2-(2-methoxy-phenylamino)-4-methyl-thiazole-5-carboxylic acid (4-pyrazol-1-ylmethyl-phenyl)-amide]	211.3 to 214.4 °C
